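The compound was tested at five concentrations on cells cultured in 96-well plates, with a 48-hour exposure period. At the GI50, growth is halved. TGI denotes the concentration required for complete inhibition of growth.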
What was measured:
Assay in all cases: NCI anticancer screen, dose series, 48 h
SF-539 CNS = tested on: SF-539 CNS
CCRF-CEM leukemia = tested on: CCRF-CEM leukemia
K-562 leukemia = tested on: K-562 leukemia
SK-OV-3 ovarian = tested on: SK-OV-3 ovarian
PC-3 prostate = tested on: PC-3 prostate
UACC-62 melanoma = tested on: UACC-62 melanoma
SW-620 colon = tested on: SW-620 colon
OVCAR-4 ovarian = tested on: OVCAR-4 ovarian
SF-295 CNS = tested on: SF-295 CNS
RXF 393 renal = tested on: RXF 393 renal
HCC-2998 colon = tested on: HCC-2998 colon
MDA-MB-435 = tested on: MDA-MB-435
UO-31 renal = tested on: UO-31 renal
HOP-92 NSCLC = tested on: HOP-92 NSCLC
M14 melanoma = tested on: M14 melanoma
HT29 colon = tested on: HT29 colon
A498 renal = tested on: A498 renal
U251 CNS = tested on: U251 CNS
ACHN renal = tested on: ACHN renal
MCF7 breast = tested on: MCF7 breast
A549 NSCLC = tested on: A549 NSCLC
HOP-62 NSCLC = tested on: HOP-62 NSCLC
MDA-MB-231 breast = tested on: MDA-MB-231 breast
DU-145 prostate = tested on: DU-145 prostate
HCT-15 colon = tested on: HCT-15 colon
NCI-H226 lung = tested on: NCI-H226 lung
MALME-3M melanoma = tested on: MALME-3M melanoma
786-0 renal = tested on: 786-0 renal
UACC-257 melanoma = tested on: UACC-257 melanoma
RPMI-8226 leukemia = tested on: RPMI-8226 leukemia
SNB-19 CNS = tested on: SNB-19 CNS
SK-MEL-2 melanoma = tested on: SK-MEL-2 melanoma
TK-10 renal = tested on: TK-10 renal
OVCAR-3 ovarian = tested on: OVCAR-3 ovarian
HCT-116 colon = tested on: HCT-116 colon
MOLT-4 leukemia = tested on: MOLT-4 leukemia
HS 578T breast = tested on: HS 578T breast
OVCAR-8 ovarian = tested on: OVCAR-8 ovarian
SK-MEL-5 melanoma = tested on: SK-MEL-5 melanoma
LOX IMVI melanoma = tested on: LOX IMVI melanoma
NCI/ADR-RES ovarian = tested on: NCI/ADR-RES ovarian
SN12C renal = tested on: SN12C renal
COLO 205 colon = tested on: COLO 205 colon
CAKI-1 renal = tested on: CAKI-1 renal
IGROV1 ovarian = tested on: IGROV1 ovarian
NCI-H460 lung = tested on: NCI-H460 lung
BT-549 breast = tested on: BT-549 breast
NCI-H522 lung = tested on: NCI-H522 lung
HL-60(TB) leukemia = tested on: HL-60(TB) leukemia
NCI-H23 lung = tested on: NCI-H23 lung
KM12 colon = tested on: KM12 colon
SK-MEL-28 melanoma = tested on: SK-MEL-28 melanoma
SF-268 CNS = tested on: SF-268 CNS
OVCAR-5 ovarian = tested on: OVCAR-5 ovarian
SNB-75 CNS = tested on: SNB-75 CNS
SR leukemia = tested on: SR leukemia
T-47D breast = tested on: T-47D breast
EKVX NSCLC = tested on: EKVX NSCLC

## O=C1/C(=C/c2ccc(O)c(O)c2)COc2ccc(-c3ccccc3)cc21
SF-539 CNS
  GI50: 1.91 µM
  TGI: 3.89 µM
CCRF-CEM leukemia
  GI50: 0.329 µM
K-562 leukemia
  GI50: 1.85 µM
  TGI: 8.31 µM
SK-OV-3 ovarian
  GI50: 4.77 µM
  TGI: 37.7 µM
PC-3 prostate
  GI50: 1.8 µM
  TGI: 10.7 µM
UACC-62 melanoma
  GI50: 2.01 µM
  TGI: 5.78 µM
SW-620 colon
  GI50: 0.875 µM
  TGI: 2.46 µM
OVCAR-4 ovarian
  GI50: 2.2 µM
  TGI: 10.2 µM
SF-295 CNS
  GI50: 2.84 µM
  TGI: 13 µM
RXF 393 renal
  GI50: 1.71 µM
  TGI: 3.86 µM
HCC-2998 colon
  GI50: 1.49 µM
  TGI: 2.98 µM
MDA-MB-435
  GI50: 1.17 µM
  TGI: 3.48 µM
UO-31 renal
  GI50: 1.22 µM
  TGI: 2.93 µM
HOP-92 NSCLC
  GI50: 1.74 µM
  TGI: 8.59 µM
M14 melanoma
  GI50: 2.02 µM
  TGI: 5.28 µM
HT29 colon
  GI50: 1.5 µM
  TGI: 3.16 µM
A498 renal
  GI50: 2.2 µM
  TGI: 7.71 µM
U251 CNS
  GI50: 1.45 µM
  TGI: 3.38 µM
ACHN renal
  GI50: 1.53 µM
  TGI: 3.22 µM
MCF7 breast
  GI50: 0.666 µM
  TGI: 5.06 µM
A549 NSCLC
  GI50: 3.16 µM
  TGI: 18.1 µM
HOP-62 NSCLC
  GI50: 3.55 µM
  TGI: 11.6 µM
MDA-MB-231 breast
  GI50: 2.26 µM
  TGI: 8.47 µM
DU-145 prostate
  GI50: 1.77 µM
  TGI: 4.48 µM
HCT-15 colon
  GI50: 0.697 µM
  TGI: 2.24 µM
NCI-H226 lung
  GI50: 4.15 µM
  TGI: 32.8 µM
MALME-3M melanoma
  GI50: 1.7 µM
  TGI: 5.55 µM
786-0 renal
  GI50: 1.94 µM
  TGI: 5.55 µM
UACC-257 melanoma
  GI50: 3.89 µM
  TGI: 16.9 µM
RPMI-8226 leukemia
  GI50: 0.187 µM
  TGI: 0.588 µM
SNB-19 CNS
  GI50: 3.51 µM
  TGI: 14.7 µM
SK-MEL-2 melanoma
  GI50: 3.64 µM
  TGI: 10.7 µM
TK-10 renal
  GI50: 1.73 µM
  TGI: 6.91 µM
OVCAR-3 ovarian
  GI50: 0.874 µM
  TGI: 3.48 µM
HCT-116 colon
  GI50: 1.23 µM
  TGI: 2.65 µM
MOLT-4 leukemia
  GI50: 0.531 µM
  TGI: 4.73 µM
HS 578T breast
  GI50: 3.21 µM
  TGI: 13.9 µM
OVCAR-8 ovarian
  GI50: 3.29 µM
  TGI: 22 µM
SK-MEL-5 melanoma
  GI50: 1.57 µM
  TGI: 3.77 µM
LOX IMVI melanoma
  GI50: 1.43 µM
  TGI: 2.84 µM
NCI/ADR-RES ovarian
  GI50: 2.24 µM
  TGI: > 26.8 µM
SN12C renal
  GI50: 2.47 µM
  TGI: 10.6 µM
COLO 205 colon
  GI50: 0.732 µM
  TGI: 2.15 µM
CAKI-1 renal
  GI50: 3.66 µM
  TGI: 33.2 µM
IGROV1 ovarian
  GI50: 1.39 µM
  TGI: 6.41 µM
NCI-H460 lung
  GI50: 1.99 µM
  TGI: 5.67 µM
BT-549 breast
  GI50: 2.37 µM
  TGI: 10.6 µM
NCI-H522 lung
  GI50: 0.334 µM
  TGI: 1.16 µM
HL-60(TB) leukemia
  GI50: 0.435 µM
  TGI: 4.47 µM
NCI-H23 lung
  GI50: 2.28 µM
  TGI: 10.9 µM
KM12 colon
  GI50: 1.42 µM
  TGI: 3.39 µM
SK-MEL-28 melanoma
  GI50: 1.6 µM
  TGI: 3.07 µM
SF-268 CNS
  GI50: 2.11 µM
  TGI: 7.33 µM
OVCAR-5 ovarian
  GI50: 3.71 µM
  TGI: 16.1 µM
SNB-75 CNS
  GI50: 2.98 µM
  TGI: 11.6 µM
SR leukemia
  GI50: 0.616 µM
T-47D breast
  GI50: 0.959 µM
  TGI: 3.61 µM
EKVX NSCLC
  GI50: 5.39 µM
  TGI: 18.1 µM

## O=CC1C(Cl)=Nc2nc3ccccc3n2C1c1ccc([N+](=O)[O-])cc1 (configuration not stated)
SF-539 CNS
  TGI: > 100 µM
CCRF-CEM leukemia
  TGI: > 100 µM
K-562 leukemia
  TGI: 78.5 µM
PC-3 prostate
  TGI: > 100 µM
UACC-62 melanoma
  TGI: 35.6 µM
SW-620 colon
  TGI: > 100 µM
OVCAR-4 ovarian
  TGI: 30.9 µM
SF-295 CNS
  TGI: 50.7 µM
RXF 393 renal
  TGI: 7.15 µM
HCC-2998 colon
  TGI: 49.4 µM
MDA-MB-435
  TGI: 27.8 µM
UO-31 renal
  TGI: 14.8 µM
HOP-92 NSCLC
  TGI: 20.7 µM
M14 melanoma
  TGI: > 100 µM
A498 renal
  TGI: 47.4 µM
U251 CNS
  TGI: 44.5 µM
MCF7 breast
  TGI: 67.9 µM
A549 NSCLC
  TGI: > 100 µM
HOP-62 NSCLC
  TGI: > 100 µM
MDA-MB-231 breast
  TGI: 45.4 µM
DU-145 prostate
  TGI: 32.4 µM
NCI-H226 lung
  TGI: 9.27 µM
MALME-3M melanoma
  TGI: 31.6 µM
786-0 renal
  TGI: > 100 µM
UACC-257 melanoma
  TGI: 31.5 µM
RPMI-8226 leukemia
  TGI: > 100 µM
SNB-19 CNS
  TGI: 36.3 µM
SK-MEL-2 melanoma
  TGI: 21.4 µM
TK-10 renal
  TGI: 16.1 µM
OVCAR-3 ovarian
  TGI: > 100 µM
HCT-116 colon
  TGI: > 100 µM
MOLT-4 leukemia
  TGI: 6.29 µM
HS 578T breast
  TGI: > 100 µM
OVCAR-8 ovarian
  TGI: 27.7 µM
SK-MEL-5 melanoma
  TGI: 37.9 µM
NCI/ADR-RES ovarian
  TGI: > 100 µM
SN12C renal
  TGI: 51.4 µM
COLO 205 colon
  TGI: > 100 µM
CAKI-1 renal
  TGI: 7.65 µM
IGROV1 ovarian
  TGI: 26 µM
NCI-H460 lung
  TGI: 94 µM
BT-549 breast
  TGI: 2.58 µM
NCI-H522 lung
  TGI: 12.8 µM
HL-60(TB) leukemia
  TGI: 20.2 µM
NCI-H23 lung
  TGI: 57.1 µM
KM12 colon
  TGI: 82.9 µM
SK-MEL-28 melanoma
  TGI: 5.09 µM
SF-268 CNS
  TGI: 62.2 µM
OVCAR-5 ovarian
  TGI: > 100 µM
SNB-75 CNS
  TGI: 5.28 µM
SR leukemia
  TGI: 5.97 µM
T-47D breast
  TGI: 4.19 µM
EKVX NSCLC
  TGI: 53.5 µM

From PubChem BioAssay (NCI)
